# In patent publication US20110143406A1, “Novel (S,S) -Butanediol Dehydrogenase, Gene for the Same, and Use of the Same” (Kaneka Corporation, priority 2006, published 2011):
# Test system: ROB ((S,S)-butanediol dehydrogenase)
# Experiment: not given
# Format: biochemical, Ochrobactrum sp. KNKc71-3
# Settings: pH 8
row,Compound,Relative activity (%)
1,[Cl-].[Cl-].[Co+2] [CoCl2],66%
2,O=C(O)CN(CCN(CC(=O)O)CC(=O)O)CC(=O)O [EDTA],95%
3,CCN1C(=O)C=CC1=O [N-ethylmaleimide],93%
4,CC(=O)[O-].[Na+] [Sodium acetate],96%

# Same assay, conditions: reagent 0.1 mM; (2S,3S)-2,3-butanediol 0.1 M, NAD+ 2 mM, pH 8.0, 30° C.; reagent-free activity taken as 100
row,Compound,Relative activity (%)
1,[Cl][Hg][Cl] [HgCl2],41%

# Same assay, conditions: reagent 1.0 mM; (2S,3S)-2,3-butanediol 0.1 M, NAD+ 2 mM, pH 8.0, 30° C.; reagent-free activity taken as 100
row,Compound,Relative activity (%)
1,O=[N+]([O-])[O-].[Ag+] [AgNO3],30%
2,[Ba+2].[Cl-].[Cl-] [BaCl2],56%
3,[Ca+2].[Cl-].[Cl-] [CaCl2],86%
4,O=S(=O)([O-])[O-].[Cu+2] [CuSO4],81%
5,[Cl][Hg][Cl] [HgCl2],0%
6,O=S(=O)([O-])[O-].[Mg+2] [MgSO4],91%
7,[Cl][Mn][Cl] [MnCl2],87%
8,O=S(=O)(F)Cc1ccccc1 [Phenylmethylsulfonyl fluoride],75%
9,O=S(=O)([O-])[O-].[Zn+2] [ZnSO4],88%
10,O=C(O)c1cc[c]([Hg][Cl])cc1 [p-chloromercuribenzoate],84%

# Test system: ROB ((S,S)-butanediol dehydrogenase)
# Experiment: not given
# Format: biochemical, Ochrobactrum sp. KNKc71-3
# Settings: oxidation; each compound 10 mM, NAD+ 2 mM, pH 8.0, 30° C., 1 minute; activity against (2S,3S)-2,3-butanediol taken as 100
# Description: Using the purified ROB obtained in Example 1, oxidation activity measurement were carried out using, as substrates, optical isomers of each of 2-butanol, 2-pentanol, 1,2-propanediol, 2,3-butanediol and 3-chloro-1,2-propanediol. NAD^+ (2 mM), each compound (10 mM) and the enzyme solution were added to 100 mM phosphate buffer (pH 8.0), the reaction was allowed to proceed at 30° C. for 1 minute, and the increase in absorbance at the wavelength 340 nm.
row,Compound,Relative activity (%)
1,"C[C@@H](O)[C@@H](C)O [(2R,3R)-2,3-butanediol]",0.6%
2,"C[C@H](O)[C@H](C)O [(2S,3S)-2,3-butanediol]",100%
3,"C[C@@H](O)CO [(R)-1,2-propanediol]",8.0%
4,CCC[C@@H](C)O [(R)-2-pentanol],2.9%
5,"OC[C@@H](O)CCl [(R)-3-chloro-1,2-propanedio]",3.5%
6,"C[C@H](O)CO [(S)-1,2-propanediol]",16.7%
7,CCC[C@H](C)O [(S)-2-pentanol],58.9%
8,"OC[C@H](O)CCl [(S)-3-chloro-1,2-propanediol]",0.1%
9,"CC(O)C(C)O (stereo not drawn) [meso-2,3-butanediol]",38.9%

# Same assay, conditions: pH 8
row,Compound,Relative activity (%)
1,CC[C@@H](C)O [(R)-2-butanol],3.2%
2,CC[C@H](C)O [(S)-2-butanol],44.2%

# Test system: ROB ((S,S)-butanediol dehydrogenase)
# Experiment: not given
# Format: biochemical, Ochrobactrum sp. KNKc71-3
# Settings: reduction; each compound 1 mM, NADH 0.167 mM, phosphate buffer pH 5.5, 30° C., 3 minutes; activity against 2,3-butanedione taken as 100
row,Compound,Relative activity (%)
1,O=C(CO)CCl [1-chloro-3-hydroxyacetone],94.3%
2,"CC(=O)C(C)=O [2,3-butanedione]",100%
3,CCC(C)=O [2-butanone],0.9%
4,CCCCCC(C)=O [2-heptanone],3.8%
5,CCCCC(C)=O [2-hexanone],2.8%
6,CCCCCCC(C)=O [2-octanone],2.8%
7,CCCC(C)=O [2-pentanone],2.8%
8,CCOC(=O)C(Cl)C(C)=O (stereo not drawn) [Ethyl 2-chloroacetoacetate],58.5%
9,CCOC(=O)CC(=O)CCl [Ethyl 4-chloroacetoacetate],21.7%
10,CCOC(=O)C(C)=O [Ethyl pyruvate],176%
11,CC(=O)CO [Hydroxyacetone],17.9%
12,COC(=O)CC(C)=O [Methyl acetoacetate],65.1%
13,COC(=O)C(C)=O [Methyl pyruvate],136%

# Test system: not listed separately
# Experiment: Optimum temperature for action of ROB
# Format: biochemical, Ochrobactrum sp. KNKc71-3
# Settings: (2S,3S)-2,3-butanediol oxidation, measured at 10 to 70° C., pH 8.0
# Description: Using the purified ROB obtained in Example 1, (2S,3S)-2,3-butanediol oxidation activity measurements were carried out at 10 to 70° C. In the activity measurements, (2S,3S)-2,3-butanediol (0.1 M), NAD^+ 2 mM and the enzyme solution were added to 100 mM phosphate buffer (pH 8.0), the reaction was allowed to proceed at 10 to 70° C. for 1 minute, and the increase in absorbance at the wavelength 340 nm were measured.
row,Compound,optimum temperature for the activity
1,"ROB: purified (S,S)-butanediol dehydrogenase from Ochrobactrum sp. KNKc71-3, amino acid sequence SEQ ID NO:1",70 °C

# Test system: ROB ((S,S)-butanediol dehydrogenase)
# Experiment: Substrate specificity of ROB: oxidation activity
# Format: biochemical, Ochrobactrum sp. KNKc71-3
# Settings: each compound 10 mM, NAD+ 2 mM, phosphate buffer pH 8.0, 30° C., 1 minute, activity against 2,3-butanediol taken as 100
# Description: Using the purified ROB obtained in Example 1, oxidation activity measurements were carried out by adding NAD^+ (2 mM), each compound (10 mM) shown in Table 2 and the enzyme solution to 100 mM phosphate buffer (pH 8.0), the reaction was allowed to proceed at 30° C. for 1 minute, and the increase in absorbance at the wavelength 340 nm was measured. The relative activity data are summarized in Table 2, with the activity against 2,3-butanediol being taken as 100.
row,Compound,Relative activity (%)
1,"CCC(O)CO (stereo not drawn) [1,2-butanediol]",8.2%
2,"CCCC(O)CO (stereo not drawn) [1,2-pentanediol]",4.4%
3,"CC(O)CO (stereo not drawn) [1,2-propanediol]",57.9%
4,"CC(O)CCO (stereo not drawn) [1,3-butanediol]",0.5%
5,"CC(O)CCCO (stereo not drawn) [1,4-pentanediol]",3.3%
6,CCCCO [1-butanol],0%
7,CC(O)CCl (stereo not drawn) [1-chloro-2-propanol],7.7%
8,CC(O)c1ccccc1 (stereo not drawn) [1-phenyl ethanol],6.8%
9,CC(O)Cc1ccccc1 (stereo not drawn) [1-phenyl-2-propanol],43.0%
10,CCCO [1-propanol],0%
11,"CC(O)C(C)O (stereo not drawn) [2,3-butanediol]",100%
12,CCC(C)O (stereo not drawn) [2-butanol],40.4%
13,CCCCCCC(C)O (stereo not drawn) [2-octanol],59.6%
14,CCCC(C)O (stereo not drawn) [2-pentanol],58.8%
15,CC(C)O [2-propanol],5.1%
16,"OCC(O)CCl (stereo not drawn) [3-chloro-1,2-propanediol]",3.9%
17,CCC(O)CC [3-pentanol],3.3%
18,CC(=O)C(C)O (stereo not drawn) [Acetoin],0.4%
19,CCO [Ethanol],0%
20,CCOC(=O)C(C)O (stereo not drawn) [Ethyl lactate],1.6%
21,CO [Methanol],0%
22,COC(=O)C(C)O (stereo not drawn) [Methyl lactate],0.9%

# Test system: not listed separately
# Experiment: Specific oxidation activity of purified enzyme
# Format: biochemical, Ochrobactrum sp. KNKc71-3
# Settings: (2S,3S)-2,3-butanediol 100 mM, NAD+ 2 mM, pH 8.0, 30° C.
# Description: In the examples described below, the oxidation activity of (S,S)-butanediol dehydrogenase was determined by adding (2S,3S)-2,3-butanediol (100 mM), NAD^+ (2 mM) and an enzyme solution to 100 mM phosphate buffer (pH 8.0) and measuring the increase in absorbance at the wavelength 340 nm at 30° C. The enzyme activity reducing 1 μmol of NAD^+ to NADH per minute was defined as 1 unit.
# Ammonium sulfate was added to this active fraction to a concentration of 1 M, and the mixture was submitted to a Phenyl-TOYOPEARL 650M (product of Tosoh) column (50 ml) equilibrated in advance with 10 mM phosphate buffer (pH 7.0) containing 1 M ammonium sulfate for adsorption of the enzyme. After washing the column with the same buffer, the active fraction was eluted on a linear gradient from 1 M to 0 M ammonium sulfate. Ammonium sulfate was added to this active fraction to a concentration of 1.2 M, and the mixture was submitted to a Butyl-TOYOPEARL 650S (product of Tosoh) column (25 ml) equilibrated in advance with 10 mM phosphate buffer (pH 7.0) containing 1.2 M ammonium sulfate for adsorption of the enzyme. After washing the column with the same buffer, the active fraction was eluted on a linear gradient from 1.2 M to 0 M ammonium sulfate. This active fraction was analyzed by sodium dodecyl sulfate-polyacrylamide electrophoresis and found to give a single band. […]
row,Compound,specific activity
1,"ROB: purified (S,S)-butanediol dehydrogenase from Ochrobactrum sp. KNKc71-3, amino acid sequence SEQ ID NO:1",about 119 U/mg-protein
